Where two headings read alike, the source gives them in different places.
Legend:
ADMP (ADAMTS-4-5) = target: T1, ADMP (ADAMTS-4-5) (Homo sapiens, UniProt O75173); assay: ADMP activity assay (procedures of WO00/05256); format: biochemical
T1 construct: purchased Calbiochem PF113
T1 sequence (O75173 213-837): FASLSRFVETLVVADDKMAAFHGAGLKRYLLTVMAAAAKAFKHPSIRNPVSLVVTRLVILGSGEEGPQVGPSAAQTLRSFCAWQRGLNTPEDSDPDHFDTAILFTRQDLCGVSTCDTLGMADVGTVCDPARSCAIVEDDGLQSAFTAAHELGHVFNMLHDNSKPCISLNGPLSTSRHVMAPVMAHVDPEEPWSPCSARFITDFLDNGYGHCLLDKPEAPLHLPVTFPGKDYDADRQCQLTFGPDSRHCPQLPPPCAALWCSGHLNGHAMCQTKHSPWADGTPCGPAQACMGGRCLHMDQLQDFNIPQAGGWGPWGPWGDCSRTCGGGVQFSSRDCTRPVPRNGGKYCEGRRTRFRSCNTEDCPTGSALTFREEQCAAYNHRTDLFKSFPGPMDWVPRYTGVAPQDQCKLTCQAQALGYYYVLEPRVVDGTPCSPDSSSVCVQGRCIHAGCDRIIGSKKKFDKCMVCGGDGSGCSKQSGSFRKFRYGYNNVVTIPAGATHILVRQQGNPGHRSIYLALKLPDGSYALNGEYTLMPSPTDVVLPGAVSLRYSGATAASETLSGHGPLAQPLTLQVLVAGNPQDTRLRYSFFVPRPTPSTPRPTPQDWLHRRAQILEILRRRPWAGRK
Excerpt: The procedures of International Patent Publication WO00/05256 (published Feb. 3, 2000) were followed for detection of ADMP Activity and for measuring the IC50 of the compounds of the present invention. This was indicative of activity against a desintgrin and metallopropeinase thrombo spondin 4 and 5 (ADAMTS-4-5).
The enzyme was purchased commercially from Calbiochem (Cat# PF113) and the peptide substrate described in the patent was custom-ordered from AnaSpec.

LpxC enzyme = LpxC enzyme assay (RapidFire high-throughput mass spectrometry); format: biochemical
Summary of the method: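 0.2 nM enzyme with 1.0 μM UDP-3-O-(R-3-hydroxymyristoyl)-N-acetylglucosamine in 25 mM HEPES pH 7.3, 150 mM NaCl, 2.0 mM DTT, 0.01% BSA, 2% DMSO; 60 min at room temperature, quenched with HCl. Substrate and product quantified by RapidFire mass spectrometry; percent conversion gives percent inhibition versus DMSO control.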

[1] = read-out: IC50 rating (ADMP inhibitory activity)
[2] = concentration 0.10 (unit not given)
[3] = concentration 0.20 (unit not given)
[4] = concentration 0.39 (unit not given)
[5] = concentration 0.78 (unit not given)
[6] = concentration 1.56 (unit not given)
[7] = concentration 3.13 (unit not given)
[8] = concentration 6.25 (unit not given)
[9] = concentration 12.50 (unit not given)
[10] = concentration 25 (unit not given)
[11] = read-out: IC50 (ADMP inhibition)

## C[C@H](NC(=O)C(O)C(O)C(=O)N1CCc2ccccc2C1)c1ccc(I)cc1 (stereo in doubt) [Compound 210]
ADMP (ADAMTS-4-5); [1]
  IC50: 250 to 1000 nM

## C[C@@H](O)[C@H](NC(=O)[C@H](O)[C@@H](O)C(=O)N(C)C)C(=O)Nc1ccc(C#Cc2ccccc2)cc1 [Compound 78]
LpxC enzyme; [2]
  LpxC enzyme assay rating (% inhibition at indicated concentrations): C (less than 10% inhibition)
LpxC enzyme; [3]
  LpxC enzyme assay rating (% inhibition at indicated concentrations): C (less than 10% inhibition)
LpxC enzyme; [4]
  LpxC enzyme assay rating (% inhibition at indicated concentrations): B (10-30% inhibition)
LpxC enzyme; [5]
  LpxC enzyme assay rating (% inhibition at indicated concentrations): C (less than 10% inhibition)
LpxC enzyme; [6]
  LpxC enzyme assay rating (% inhibition at indicated concentrations): C (less than 10% inhibition)
LpxC enzyme; [7]
  LpxC enzyme assay rating (% inhibition at indicated concentrations): B (10-30% inhibition)
LpxC enzyme; [8]
  LpxC enzyme assay rating (% inhibition at indicated concentrations): B (10-30% inhibition)
LpxC enzyme; [9]
  LpxC enzyme assay rating (% inhibition at indicated concentrations): B (10-30% inhibition)
LpxC enzyme; [10]
  LpxC enzyme assay rating (% inhibition at indicated concentrations): A (greater than 30% inhibition)

## CN(C)C(=O)[C@H](O)[C@@H](O)C(=O)Nc1ccccc1C#Cc1ccccc1 [Compound 80]
LpxC enzyme; [2]
  LpxC enzyme assay rating (% inhibition at indicated concentrations): C (less than 10% inhibition)
LpxC enzyme; [3]
  LpxC enzyme assay rating (% inhibition at indicated concentrations): C (less than 10% inhibition)
LpxC enzyme; [4]
  LpxC enzyme assay rating (% inhibition at indicated concentrations): C (less than 10% inhibition)
LpxC enzyme; [5]
  LpxC enzyme assay rating (% inhibition at indicated concentrations): C (less than 10% inhibition)
LpxC enzyme; [6]
  LpxC enzyme assay rating (% inhibition at indicated concentrations): C (less than 10% inhibition)
LpxC enzyme; [7]
  LpxC enzyme assay rating (% inhibition at indicated concentrations): C (less than 10% inhibition)
LpxC enzyme; [8]
  LpxC enzyme assay rating (% inhibition at indicated concentrations): C (less than 10% inhibition)
LpxC enzyme; [9]
  LpxC enzyme assay rating (% inhibition at indicated concentrations): B (10-30% inhibition)
LpxC enzyme; [10]
  LpxC enzyme assay rating (% inhibition at indicated concentrations): C (less than 10% inhibition)

## CN(C)C(=O)[C@H](O)[C@@H](O)C(=O)Nc1cccc(C#Cc2ccccc2)c1 [Compound 81]
LpxC enzyme; [2]
  LpxC enzyme assay rating (% inhibition at indicated concentrations): C (less than 10% inhibition)
LpxC enzyme; [3]
  LpxC enzyme assay rating (% inhibition at indicated concentrations): C (less than 10% inhibition)
LpxC enzyme; [4]
  LpxC enzyme assay rating (% inhibition at indicated concentrations): C (less than 10% inhibition)
LpxC enzyme; [5]
  LpxC enzyme assay rating (% inhibition at indicated concentrations): C (less than 10% inhibition)
LpxC enzyme; [6]
  LpxC enzyme assay rating (% inhibition at indicated concentrations): C (less than 10% inhibition)
LpxC enzyme; [7]
  LpxC enzyme assay rating (% inhibition at indicated concentrations): C (less than 10% inhibition)
LpxC enzyme; [8]
  LpxC enzyme assay rating (% inhibition at indicated concentrations): C (less than 10% inhibition)
LpxC enzyme; [9]
  LpxC enzyme assay rating (% inhibition at indicated concentrations): C (less than 10% inhibition)
LpxC enzyme; [10]
  LpxC enzyme assay rating (% inhibition at indicated concentrations): C (less than 10% inhibition)

## CN(C)C(=O)[C@H](O)[C@@H](O)C(=O)Nc1ccc(-c2ccc3ccccc3c2)cc1 [Compound 82]
LpxC enzyme; [2]
  LpxC enzyme assay rating (% inhibition at indicated concentrations): C (less than 10% inhibition)
LpxC enzyme; [3]
  LpxC enzyme assay rating (% inhibition at indicated concentrations): B (10-30% inhibition)
LpxC enzyme; [4]
  LpxC enzyme assay rating (% inhibition at indicated concentrations): C (less than 10% inhibition)
LpxC enzyme; [5]
  LpxC enzyme assay rating (% inhibition at indicated concentrations): C (less than 10% inhibition)
LpxC enzyme; [6]
  LpxC enzyme assay rating (% inhibition at indicated concentrations): C (less than 10% inhibition)
LpxC enzyme; [7]
  LpxC enzyme assay rating (% inhibition at indicated concentrations): B (10-30% inhibition)
LpxC enzyme; [8]
  LpxC enzyme assay rating (% inhibition at indicated concentrations): B (10-30% inhibition)
LpxC enzyme; [9]
  LpxC enzyme assay rating (% inhibition at indicated concentrations): A (greater than 30% inhibition)
LpxC enzyme; [10]
  LpxC enzyme assay rating (% inhibition at indicated concentrations): A (greater than 30% inhibition)

## CN(C)C(=O)[C@H](O)[C@@H](O)C(=O)N(C)c1ccccc1C#Cc1ccccc1 [Compound 103]
LpxC enzyme; [2]
  LpxC enzyme assay rating (% inhibition at indicated concentrations): C (less than 10% inhibition)
LpxC enzyme; [3]
  LpxC enzyme assay rating (% inhibition at indicated concentrations): C (less than 10% inhibition)
LpxC enzyme; [4]
  LpxC enzyme assay rating (% inhibition at indicated concentrations): B (10-30% inhibition)
LpxC enzyme; [5]
  LpxC enzyme assay rating (% inhibition at indicated concentrations): B (10-30% inhibition)
LpxC enzyme; [6]
  LpxC enzyme assay rating (% inhibition at indicated concentrations): B (10-30% inhibition)
LpxC enzyme; [7]
  LpxC enzyme assay rating (% inhibition at indicated concentrations): B (10-30% inhibition)
LpxC enzyme; [8]
  LpxC enzyme assay rating (% inhibition at indicated concentrations): C (less than 10% inhibition)
LpxC enzyme; [9]
  LpxC enzyme assay rating (% inhibition at indicated concentrations): B (10-30% inhibition)
LpxC enzyme; [10]
  LpxC enzyme assay rating (% inhibition at indicated concentrations): C (less than 10% inhibition)

## CN(C)C(=O)[C@H](O)[C@@H](O)C(=O)N(C)c1ccc(-c2ccc3ccccc3c2)cc1 [Compound 104]
LpxC enzyme; [2]
  LpxC enzyme assay rating (% inhibition at indicated concentrations): C (less than 10% inhibition)
LpxC enzyme; [3]
  LpxC enzyme assay rating (% inhibition at indicated concentrations): C (less than 10% inhibition)
LpxC enzyme; [4]
  LpxC enzyme assay rating (% inhibition at indicated concentrations): C (less than 10% inhibition)
LpxC enzyme; [5]
  LpxC enzyme assay rating (% inhibition at indicated concentrations): C (less than 10% inhibition)
LpxC enzyme; [6]
  LpxC enzyme assay rating (% inhibition at indicated concentrations): C (less than 10% inhibition)
LpxC enzyme; [7]
  LpxC enzyme assay rating (% inhibition at indicated concentrations): C (less than 10% inhibition)
LpxC enzyme; [8]
  LpxC enzyme assay rating (% inhibition at indicated concentrations): C (less than 10% inhibition)
LpxC enzyme; [9]
  LpxC enzyme assay rating (% inhibition at indicated concentrations): C (less than 10% inhibition)
LpxC enzyme; [10]
  LpxC enzyme assay rating (% inhibition at indicated concentrations): B (10-30% inhibition)

## COc1ccc(CNC(=O)[C@H](O)[C@@H](O)C(=O)N2CCC(C(C)=O)(c3ccccc3)CC2)cc1 [Compound 108]
ADMP (ADAMTS-4-5)
  IC50: 250 to 1000 nM

## CN(Cc1ccccc1)C(=O)[C@H](O)[C@@H](O)C(=O)NCc1ccc(Cl)cc1 [Compound 110]
ADMP (ADAMTS-4-5); [1]
  IC50: 250 to 1000 nM

## O=C(NCc1ccc(C(F)(F)F)cc1)[C@H](O)[C@@H](O)C(=O)N1CCN(c2cccc(Cl)c2)CC1 [Compound 111]
ADMP (ADAMTS-4-5); [1]
  IC50: 250 to 1000 nM

## CN(CCc1ccccn1)C(=O)[C@H](O)[C@@H](O)C(=O)NCc1ccc(Cl)cc1 [Compound 113]
ADMP (ADAMTS-4-5); [1]
  IC50: 250 to 1000 nM

## C[C@H](NC(=O)[C@H](O)[C@@H](O)C(=O)N1CCc2ccccc2C1)c1ccc(Br)cc1 [Compound 114]
ADMP (ADAMTS-4-5); [1]
  IC50: < 250 nM

## CC(=O)c1ccc(N2CCN(C(=O)[C@H](O)[C@@H](O)C(=O)NCc3ccc(Cl)cc3)CC2)cc1 [Compound 118]
ADMP (ADAMTS-4-5); [1]
  IC50: > 5000 nM

## C[C@H](NC(=O)[C@H](O)[C@@H](O)C(=O)N(C)C1CCN(C)CC1)c1ccc(Br)cc1 [Compound 121]
ADMP (ADAMTS-4-5); [1]
  IC50: 1000 to 5000 nM

## CN1CCC(N(C)C(=O)[C@H](O)[C@@H](O)C(=O)NCc2ccc(C(F)(F)F)cc2)CC1 [Compound 122]
ADMP (ADAMTS-4-5); [1]
  IC50: 250 to 1000 nM

## N[C@@H]1CCN(C(=O)[C@H](O)[C@@H](O)C(=O)NCc2ccc(C(F)(F)F)cc2)C1 [Compound 123]
ADMP (ADAMTS-4-5); [1]
  IC50: 1000 to 5000 nM

## CN(C(=O)[C@H](O)[C@@H](O)C(=O)NCc1ccc(C(F)(F)F)cc1)C1CCCCC1 [Compound 125]
ADMP (ADAMTS-4-5); [1]
  IC50: 250 to 1000 nM

## O=C(NCc1ccc(C(F)(F)F)cc1)[C@H](O)[C@@H](O)C(=O)N1CCN(c2ccc(F)cc2)CC1 [Compound 126]
ADMP (ADAMTS-4-5); [1]
  IC50: 250 to 1000 nM

## CN(C)CCN(C)C(=O)[C@H](O)[C@@H](O)C(=O)NCc1ccc(C(F)(F)F)cc1 [Compound 127]
ADMP (ADAMTS-4-5); [1]
  IC50: > 5000 nM

## COc1ccc(N2CCN(C(=O)[C@H](O)[C@@H](O)C(=O)N[C@@H](C)c3ccc(Br)cc3)CC2)cc1 [Compound 130]
ADMP (ADAMTS-4-5); [11]
  IC50: 170 nM
ADMP (ADAMTS-4-5); [1]
  IC50: < 250 nM

## COc1ccc(N2CCN(C(=O)[C@H](O)[C@@H](O)C(=O)NCCc3cccc(Cl)c3)CC2)cc1 [Compound 131]
ADMP (ADAMTS-4-5); [1]
  IC50: 250 to 1000 nM

## COc1ccc(N2CCN(C(=O)[C@H](O)[C@@H](O)C(=O)NCc3ccc(Cl)cc3)CC2)cc1 [Compound 132]
ADMP (ADAMTS-4-5); [1]
  IC50: 250 to 1000 nM

## CC(=O)C1(c2ccccc2)CCN(C(=O)[C@H](O)[C@@H](O)C(=O)N[C@@H](C)c2ccc(Br)cc2)CC1 [Compound 133]
ADMP (ADAMTS-4-5)
  IC50: < 250 nM

## COc1ccc(CNC(=O)[C@H](O)[C@@H](O)C(=O)N2CCC[C@H]2CN2CCCC2)cc1 [Compound 134]
ADMP (ADAMTS-4-5); [1]
  IC50: 250 to 1000 nM

## C[C@H](NC(=O)[C@H](O)[C@@H](O)C(=O)N1Cc2ccccc2C[C@@H]1CO)c1ccc(Br)cc1 [Compound 138]
ADMP (ADAMTS-4-5); [11]
  IC50: 190 nM
ADMP (ADAMTS-4-5); [1]
  IC50: < 250 nM
